Laboratory results as given in patent US20240116961A1, “TRIPHENYPHOSPHINE MODIFIED SERTRALINE DERIVATIVE AND METHODS THEREOF” (XIAMEN UNIVERSITY, priority 2022, published 2024).

Experiments:
tumor cells = test: Mitophagy by transmission electron microscopy; assay type: cell-based; conditions: concentration 0.3 μM, work time 3 hours; FIG. 3
Method: • (1) Apparatus: Transmission electron microscope Hitachi HT-7800 • (2) Reagent: glutaraldehyde • (3) Experimental method: cells are inoculated in a 6 cm diameter Petri dish and incubated with the compounds for 3 hours. The culture solution is poured out; a 2 mL glutaraldehyde working solution (2.5% glutaraldehyde and phosphate buffer (PB) system) restored to room temperature is added and put into a refrigerator at 4° C. after fixation for 15 minutes at room temperature; the fixation solution is diluted 2-3 times with PB after fixation for 2-3 hours, the PB used for washing is poured off, PB containing 5% Bovine albumin (BSA) is added with an amount of 1 mL, and the adherent fixed cells are scraped off using a cell scraper, collected into 1.5 mL centrifuge tubes, and centrifuged for 4-5 minutes at 2,500 revolutions per minute (rpm) at 4° C. to prepare samples. The images are analyzed by a transmission electron microscope.

[1] = Immunohistochemistry of heart, liver, spleen, lung and kidney in tumor-bearing mice; assay type: in vivo, BALB/c (nu/nu) nude mice; conditions: 1 mg/kg intraperitoneal injection once a day for 15 days; FIG. 6
Method: BALB/c (nu/nu) nude mice (with weights of 18-20 g and raised in an SPF-level animal room) are selected to construct a mouse transplantation tumor model in vitro, the mice are grouped and inoculated with human non-small cell lung cancer cells (A549), and tumor volumes in the mice grow to 100-300 mm^3. The drug is administered by intraperitoneal injection, and each mouse in an administration group is administered once a day and 1 mg/kg once according to body weight. In a control group, each mouse is administrated with a same volume of PBS buffer, the volume of each mouse is measured simultaneously, and the drug is continuously administered for 15 days. After the drug administration and treatment process is complete, the mice are killed by cervical dislocation, and the mouse tumors are stripped, photographed, and weighed.

Structure (SMILES) | autophagosome formation / mitophagy (tumor cells) | toxic side effects (heart, liver, spleen, lung, kidney) [1]
CN(C(=O)CC[P+](c1ccccc1)(c1ccccc1)c1ccccc1)[C@H]1CC[C@@H](c2ccc(Cl)c(Cl)c2)c2ccccc21 [Mito-2-Ser, (3-(((1S,4S)-4-(3,4-dichlorophenyl)-1,2,3,4-tetrahydronaphthalen-1-yl)(methyl)amino)-3-propanoyl)triphenylphosphine] | induce autophagosome formation to phagocytize mitochondria | –
CN(C(=O)CCCCCCCCCC[P+](c1ccccc1)(c1ccccc1)c1ccccc1)[C@H]1CC[C@@H](c2ccc(Cl)c(Cl)c2)c2ccccc21 [Mito-10-Ser, (11-(((1S,4S)-4-(3,4-dichlorophenyl)-1,2,3,4-tetrahydronaphthalen-1-yl)(methyl)amino)-11-oxoundecyl)triphenylphosphine] | – | did not have significant toxic side effects
CN(C(=O)CCCCCCCCCCCC[P+](c1ccccc1)(c1ccccc1)c1ccccc1)[C@H]1CC[C@@H](c2ccc(Cl)c(Cl)c2)c2ccccc21 [Mito-12-Ser, (13-(((1S,4S)-4-(3,4-dichlorophenyl)-1,2,3,4-tetrahydronaphthalen-1-yl)(methyl)amino)-13-oxytridecyl)triphenylphosphine] | induce autophagosome formation to phagocytize mitochondria | –
